The data set in a line: Degradation of THC during preparation of the chewing gum (extraction and HPLC). The settings on record: gum base heated till 90° C.; main breakdown product dihydrocannabinol. The format is physicochemical. Here is the method:
Samples were prepared by putting one gum in a 10.0 ml glass laboratory tube. 5.00 ml ethanol was added and the tube was shaken 3 times with a 5 minute interval. Then 5.00 ml mobile phase (acetonitrile: H2O+0.1% formic acid) was added. The tube was shaken and the gum was mashed with a Pasteur pipette. Then the solution was shaken again and the sample was filtered through a 0.2 micrometer filter. This is the impurity solution. An assay solution was prepared by diluting the impurity solution 100 times with mobile phase. The calculated amount of THC is based upon comparison with a reference solution with an exactly known amount of THC. Purities are calculated as peak area/sum of area's*100%. Impurities present in the placebo are not considered and known impurities are corrected with known response factors.

SMILES strings stand for the structures.

Take `CCCCCc1cc(O)c2c(c1)OC(C)(C)[C@@H]1CCC(C)=C[C@@H]21` [THC, (−)-(6aR,10aR)-6,6,9-trimethyl-3-pentyl-6a,7,8,10a-tetrahydro-6H-benzo[c]chromen-1-ol]: the “degradation of THC during the preparation of the chewing gum” value is listed as “only a slight degradation”.

(Values after patent US9433601B2, “Chewing gum compositions comprising cannabinoids” (Stichting Sanammad, priority 2008, dated 2016).)
